Consider 13 compounds from PubChem BioAssay (NCI).

The structures appear in SMILES notation.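 Test compounds were applied to cells in 96-well plates for 48 hours at 5 doses. GI50 marks 50% less growth. The concentration for full growth arrest is given as TGI.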 Bounds are passed on as bounds.

Test systems include U251 CNS; MOLT-4 leukemia; DU-145 prostate; 786-0 renal; PC-3 prostate; LOX IMVI melanoma; SK-OV-3 ovarian; CCRF-CEM leukemia.
Assay in all cases: NCI tumour cell line growth inhibition, 48 h

Consider `COc1ccc(C2=CC(c3ccc(OC)cc3Br)N3C=CSC3=N2)cc1` (configuration not stated), for which the GI50 is 3.23 µM in the test on U251 CNS; 2.93 µM in the test with MOLT-4 leukemia; 11.9 µM with DU-145 prostate; 13.1 µM with 786-0 renal; 6.4 µM with PC-3 prostate; 2 µM in the test on LOX IMVI melanoma. For the same compound, the figures for the GI50 with SK-OV-3 ovarian and in the test with CCRF-CEM leukemia were 6.78 µM and 2.69 µM, respectively. Moreover, the TGI with U251 CNS is 14 µM; in the test with MOLT-4 leukemia, 9.64 µM; with DU-145 prostate, 33.1 µM; in the test on 786-0 renal, 28.7 µM; with PC-3 prostate it was 31.9 µM; in the test on LOX IMVI melanoma, 4.03 µM. Further, the TGI is 27 µM in the test with SK-OV-3 ovarian and above 100 µM in the test with CCRF-CEM leukemia.
As for `CCOC(=O)c1cc2c(n1Cc1cc(OC)c(OC)c(OC)c1)-c1oncc1CCC2`, the GI50 in the test with U251 CNS is 0.214 µM; in the test on MOLT-4 leukemia, 0.406 µM; in the test on DU-145 prostate, 0.302 µM; in the test with 786-0 renal, 0.583 µM; in the test with PC-3 prostate it was 0.209 µM; in the test with LOX IMVI melanoma it was 0.401 µM. Moreover, the GI50 was 0.185 µM in the test with SK-OV-3 ovarian and 0.318 µM with CCRF-CEM leukemia. Further, the TGI in the test on U251 CNS was 5.01 µM; in the test on MOLT-4 leukemia, above 44.8 µM; in the test with DU-145 prostate it was 6.87 µM; in the test with 786-0 renal, above 35.9 µM; in the test on PC-3 prostate, above 65.3 µM; with LOX IMVI melanoma it was above 35.7 µM. For the same compound, the TGI in the test with SK-OV-3 ovarian is 3.55 µM; with CCRF-CEM leukemia, 5.38 µM.
In the case of `Cc1cn2c(/C=C3/C(=O)Nc4ccc(O)cc43)c(C)nc2s1`, the GI50 in the test with U251 CNS is 3.06 µM; in the test on MOLT-4 leukemia, 4.46 µM; in the test with DU-145 prostate it was 6.43 µM; in the test with 786-0 renal, 4.95 µM; in the test on PC-3 prostate, 2.11 µM; in the test on LOX IMVI melanoma it was 4.46 µM. Moreover, the GI50 is 3.8 µM with SK-OV-3 ovarian and 1.25 µM in the test on CCRF-CEM leukemia. The TGI in the test on U251 CNS was 35.7 µM; in the test with MOLT-4 leukemia, 48.6 µM; in the test with DU-145 prostate, above 100 µM; in the test on 786-0 renal it was above 100 µM; in the test on PC-3 prostate it was 37.2 µM; with LOX IMVI melanoma it was 99.6 µM. The compound also came in with a TGI in the test with SK-OV-3 ovarian above 28.8 µM.
On to `C=C1CC[C@@H]2[C@](C)(COC(C)=O)[C@H](OC(C)=O)CC[C@@]2(C)[C@@H]1CC(Nc1ccc(S(=O)(=O)Nc2ccc(Cl)nn2)cc1)C1=CCOC1=O` (some centres not stated), for which the GI50 with U251 CNS is 1.68 µM; in the test with MOLT-4 leukemia it was 1.96 µM; with DU-145 prostate, 1.7 µM; in the test with 786-0 renal, 1.69 µM; with PC-3 prostate it was 2.24 µM; in the test on LOX IMVI melanoma it was 0.295 µM. Further, the values for the GI50 in the test on SK-OV-3 ovarian and with CCRF-CEM leukemia were 4.05 µM and 0.465 µM, respectively. The TGI in the test on U251 CNS is 3.05 µM; with MOLT-4 leukemia, above 100 µM; in the test with DU-145 prostate it was 3.45 µM; in the test on 786-0 renal it was 3.14 µM; with PC-3 prostate it was 5.25 µM; in the test on LOX IMVI melanoma it was 1.19 µM. Also, the results for the TGI in the test with SK-OV-3 ovarian and with CCRF-CEM leukemia were 12.3 µM and 2.6 µM, respectively.
Regarding `Cc1[nH]c(=O)nc(Nc2ccc(Cl)cc2)c1C(=O)N1CCN(CCO)CC1`, the GI50 was 37.6 µM in the test with U251 CNS; above 100 µM in the test on MOLT-4 leukemia; above 100 µM in the test with DU-145 prostate; 50.7 µM with 786-0 renal; above 100 µM in the test on PC-3 prostate; above 100 µM with LOX IMVI melanoma. Besides, the GI50 with SK-OV-3 ovarian is 29.8 µM; in the test with CCRF-CEM leukemia, above 100 µM. The TGI in the test on U251 CNS, with MOLT-4 leukemia, with DU-145 prostate, in the test with 786-0 renal, with PC-3 prostate and in the test on LOX IMVI melanoma was above 100 µM each time. Moreover, the TGI in the test with SK-OV-3 ovarian was 83.1 µM; in the test with CCRF-CEM leukemia it was above 100 µM.
Regarding `Cn1cccc1-c1cc(-c2ccc(Br)cc2)[nH]c(=O)c1C#N`, the GI50 with U251 CNS was above 100 µM; in the test with MOLT-4 leukemia, 57.1 µM; in the test on DU-145 prostate, above 100 µM; in the test with 786-0 renal it was above 100 µM; in the test on PC-3 prostate, above 100 µM; in the test on LOX IMVI melanoma it was above 100 µM. The GI50 with SK-OV-3 ovarian and with CCRF-CEM leukemia was above 100 µM each time. The TGI with U251 CNS, with MOLT-4 leukemia, in the test on DU-145 prostate, with 786-0 renal, with PC-3 prostate and in the test with LOX IMVI melanoma was above 100 µM in each case. For the same compound, the TGI in the test with SK-OV-3 ovarian and in the test on CCRF-CEM leukemia was above 100 µM in each case.
`COc1ccc(C(=O)/C=C/c2cccc(Nc3ccnc4cc(Cl)ccc34)c2)cc1`: the GI50 is 1.74 µM in the test with U251 CNS; 2.9 µM in the test with MOLT-4 leukemia; 2.45 µM in the test on DU-145 prostate; 1.48 µM in the test on 786-0 renal; 2.51 µM with PC-3 prostate; 1.58 µM in the test on LOX IMVI melanoma. Moreover, the figures for the GI50 with SK-OV-3 ovarian and in the test on CCRF-CEM leukemia were 2.22 µM and 2.88 µM, respectively. Besides, the TGI in the test on U251 CNS is 4.82 µM; with MOLT-4 leukemia it was above 100 µM; with DU-145 prostate, above 100 µM; in the test with 786-0 renal, 4.27 µM; with PC-3 prostate, above 100 µM; in the test on LOX IMVI melanoma, 11.7 µM. Further, the values for the TGI in the test on SK-OV-3 ovarian and in the test on CCRF-CEM leukemia were 7.98 µM and above 100 µM, respectively.
In the case of `COc1cc(/C=C/C(=O)c2ccc(F)cc2)ccc1OCCCN1CCN(CC(=O)Nc2ccc(Cl)cc2C(=O)c2ccccc2Cl)CC1`, the GI50 in the test on U251 CNS was 5.01 µM; in the test with MOLT-4 leukemia, 3.23 µM; in the test on DU-145 prostate it was 29.8 µM; in the test on 786-0 renal, 3.86 µM; in the test on PC-3 prostate it was 5.06 µM; in the test on LOX IMVI melanoma it was 3.97 µM. Further, the GI50 was 17.4 µM in the test on SK-OV-3 ovarian and 2.65 µM with CCRF-CEM leukemia. For the same compound, the TGI in the test with U251 CNS is 17.3 µM; in the test on MOLT-4 leukemia it was above 100 µM; in the test with DU-145 prostate it was above 100 µM; with 786-0 renal it was 15.2 µM; in the test on PC-3 prostate, 45.7 µM; in the test with LOX IMVI melanoma, 14.6 µM. Moreover, the results for the TGI in the test with SK-OV-3 ovarian and with CCRF-CEM leukemia were 44.2 µM and 9.3 µM, respectively.
In the case of `Cc1cnc(CNC(=O)c2c(=O)c3ccc(N4CCCN(C)CC4)nc3n3c2sc2ccccc23)cn1`, the GI50 in the test on U251 CNS was 3 µM; in the test with MOLT-4 leukemia, 0.0839 µM; with DU-145 prostate, 1.03 µM; with 786-0 renal it was 6.17 µM; with PC-3 prostate it was 4.04 µM; with LOX IMVI melanoma it was 0.331 µM. Further, the GI50 with SK-OV-3 ovarian was 12.5 µM; in the test on CCRF-CEM leukemia, 1.96 µM. The TGI is 7.37 µM in the test with U251 CNS; 10.7 µM in the test with MOLT-4 leukemia; 6.29 µM in the test on DU-145 prostate; 22.7 µM with 786-0 renal; 9.7 µM in the test with PC-3 prostate; 2.05 µM in the test with LOX IMVI melanoma. The TGI in the test on SK-OV-3 ovarian came to 28.9 µM; with CCRF-CEM leukemia, 19.9 µM.
On to `Nc1ccccc1C#C/C=C\C#Cc1cccc(O)c1`, for which the GI50 is 4.09 µM in the test on U251 CNS; 3.21 µM in the test on MOLT-4 leukemia; 16.8 µM in the test on DU-145 prostate; 3.89 µM in the test on 786-0 renal; 6.5 µM in the test with PC-3 prostate; 0.579 µM in the test on LOX IMVI melanoma. Besides, the GI50 in the test with SK-OV-3 ovarian was 3.03 µM; in the test with CCRF-CEM leukemia, 8.12 µM. Besides, the TGI in the test on U251 CNS is 17.1 µM; with MOLT-4 leukemia it was 23.7 µM; in the test with DU-145 prostate, above 57.7 µM; in the test on 786-0 renal, 15.3 µM; in the test with PC-3 prostate, 42.7 µM; in the test with LOX IMVI melanoma, 10.8 µM. Also, the TGI was 19.8 µM in the test with SK-OV-3 ovarian and above 44 µM in the test with CCRF-CEM leukemia.
As for `COc1ccc(/C=C(\C(=O)NCc2cccnc2)S(=O)(=O)c2ccccc2)cc1OC`, the GI50 was 3.09 µM in the test with U251 CNS; 3.35 µM in the test on MOLT-4 leukemia; 3.06 µM with DU-145 prostate; 2.86 µM in the test on 786-0 renal; 3.5 µM with PC-3 prostate; 3.09 µM with LOX IMVI melanoma. Moreover, the GI50 was 4.1 µM in the test on SK-OV-3 ovarian and 2.26 µM in the test on CCRF-CEM leukemia. Besides, the TGI is 14 µM with U251 CNS; 89.1 µM with MOLT-4 leukemia; 12.4 µM in the test with DU-145 prostate; 8.92 µM in the test with 786-0 renal; 14.5 µM in the test on PC-3 prostate; 11.8 µM with LOX IMVI melanoma. For the same compound, the figures for the TGI with SK-OV-3 ovarian and with CCRF-CEM leukemia were 13.2 µM and 15.8 µM, respectively.
For `CC(C)CCNCC(O)Cn1c2ccccc2c2ccccc21` (configuration not stated), the GI50 in the test on U251 CNS is 10.5 µM; with MOLT-4 leukemia, 10.2 µM; in the test with DU-145 prostate, 14.6 µM; with 786-0 renal it was 13.2 µM; with PC-3 prostate, 10.6 µM; with LOX IMVI melanoma it was 5.6 µM. Further, the GI50 is 17.2 µM in the test with SK-OV-3 ovarian and 12.8 µM with CCRF-CEM leukemia. For the same compound, the TGI was found to be 23.5 µM in the test with U251 CNS; 25.9 µM in the test with MOLT-4 leukemia; 27.9 µM in the test on DU-145 prostate; 27.3 µM in the test with 786-0 renal; 23 µM in the test with PC-3 prostate; 18.5 µM in the test on LOX IMVI melanoma. Moreover, the figures for the TGI with SK-OV-3 ovarian and with CCRF-CEM leukemia were 31.2 µM and 31.7 µM, respectively.
On to `CC(C)(C)c1[nH]nc2c1C(c1cc3ccccc3[nH]c1=O)Nc1cc(C(=O)OCc3ccccc3)ccc1N2` (configuration not stated), for which the GI50 in the test on U251 CNS was 3.41 µM; with MOLT-4 leukemia, 3.3 µM; with DU-145 prostate, 6.04 µM; in the test with 786-0 renal it was 3.41 µM; in the test with PC-3 prostate, 2.7 µM; with LOX IMVI melanoma it was 3.35 µM. Moreover, the GI50 in the test with SK-OV-3 ovarian is 3.27 µM; in the test with CCRF-CEM leukemia, 3.23 µM. In addition, the TGI in the test with U251 CNS is above 100 µM; with MOLT-4 leukemia it was 44.1 µM; in the test with DU-145 prostate it was above 100 µM; with 786-0 renal, above 100 µM; in the test with PC-3 prostate, above 100 µM; in the test on LOX IMVI melanoma, above 100 µM. The TGI with SK-OV-3 ovarian was 8.73 µM; with CCRF-CEM leukemia it was above 100 µM.
